Reference: patent US12441757B2, “Platform for screening NAD+ binding proteins in a cellular context” (OREGON HEALTH & SCIENCE UNIVERSITY, priority 2020, dated 2025)
Entries after “also recorded” stand apart in the source; their conditions may differ.

Assays:
PARP-10 = molecular target: T1, PARP-10 (Homo sapiens, UniProt Q53GL7); test: Competition labeling of PARP-10 by 2-ad-BAD; type: binding; conditions: for block of 2-ad-BAD labeling of PARP-10 by nucleotides: 150 μM nucleotide, 0.3 μM 2-ad-BAD; for dose-dependent block of 2-ad-BAD labeling of PARP-10: competitor dose series
T1 construct: Full length His6-PARP-1 and His6-SUMO-PARP-10 proteins we expressed and purified; His6 (N); SUMO (N); made in house
T1 sequence (Q53GL7 1-1025): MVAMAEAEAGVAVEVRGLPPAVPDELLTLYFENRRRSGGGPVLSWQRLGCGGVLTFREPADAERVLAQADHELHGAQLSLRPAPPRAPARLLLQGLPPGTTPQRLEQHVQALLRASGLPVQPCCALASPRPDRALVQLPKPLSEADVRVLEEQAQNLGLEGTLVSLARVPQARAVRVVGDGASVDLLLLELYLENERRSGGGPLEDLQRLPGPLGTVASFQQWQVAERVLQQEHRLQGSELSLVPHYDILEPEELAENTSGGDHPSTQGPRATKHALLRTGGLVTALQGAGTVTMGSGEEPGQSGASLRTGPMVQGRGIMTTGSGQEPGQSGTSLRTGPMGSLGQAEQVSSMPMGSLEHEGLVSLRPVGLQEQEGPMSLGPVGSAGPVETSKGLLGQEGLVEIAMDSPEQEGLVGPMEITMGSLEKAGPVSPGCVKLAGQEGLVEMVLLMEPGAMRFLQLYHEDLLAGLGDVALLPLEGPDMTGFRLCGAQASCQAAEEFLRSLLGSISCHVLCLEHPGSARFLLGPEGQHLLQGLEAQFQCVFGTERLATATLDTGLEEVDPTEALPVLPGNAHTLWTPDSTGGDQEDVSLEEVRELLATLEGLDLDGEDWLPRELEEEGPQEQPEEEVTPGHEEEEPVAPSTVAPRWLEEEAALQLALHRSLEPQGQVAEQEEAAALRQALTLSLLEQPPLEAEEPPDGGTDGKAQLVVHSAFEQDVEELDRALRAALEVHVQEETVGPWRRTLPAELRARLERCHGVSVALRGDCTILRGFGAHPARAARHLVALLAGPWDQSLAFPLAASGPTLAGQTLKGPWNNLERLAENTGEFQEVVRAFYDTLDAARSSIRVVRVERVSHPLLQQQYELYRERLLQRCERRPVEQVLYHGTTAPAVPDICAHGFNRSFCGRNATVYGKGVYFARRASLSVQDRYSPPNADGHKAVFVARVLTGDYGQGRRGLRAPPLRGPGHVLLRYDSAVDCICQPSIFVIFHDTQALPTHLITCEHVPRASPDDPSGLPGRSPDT
Source text: (§1) FIG. 8. Densitometry analyses of FIG. 3A panels (A,B) comparing the inhibitory effect of nucleotides and (B) panels (C,D) comparing inhibitory effect of PARP inhibitors on PARP-1 and PARP-10 labelling by 2-ad-BAD. TAMRA in-gel fluorescence was normalized to Coomassie staining, except for PARP-1 NAD^+ treated samples where relative to control TAMRA signal is reported due to auto-PARylation induced molecular weight shift and therefore not detectable Coomassie signal at PARP-1 molecular weight of ˜110 kDa. Data are mean±SEM of 3 independent experiments.
(§2) Treatments. Recombinant PARP-1 (250 nM), PARP-10 (250 nM) or AK1 (500 nM; Novus Biologicals) were diluted in 100 mM NaCl, 50 mM HEPES [pH 7.4], 4 mM MgCl2, 0.2 mM TCEP. PARP-1 reactions also contained 10 μg/mL of activated calf thymus DNA (Sigma-Aldrich D4522), unless otherwise noted. In experiments reported in FIG. 2, the samples were treated with 0.1 μM 2-ad-BAD or ad-olaparib for 10 min. In competition experiments reported in FIG. 3 and Figure S3, samples were first treated with 150 μM of indicated nucleotides for 10 minute and then with 0.3 μM 2-ad-BAD for additional 10 min. All treatments occurred at RT. Samples were then kept in the dark or irradiated for 5 min in the RPR-100 Photochemical Reactor (Rayonet) equipped with 350 nm lamps at 4° C.
(§3) Click Chemistry. 25 μL of each sample was mixed with 5 μL of fatty acid free BSA and SDS to give a final Click reaction concentration of 1 mg/mL and 1%, respectively. Click reactions were started by adding 15 μL of PBS based 3× click reaction mix (final 1× concentrations shown): 100 μM Tris[(1-benzyl-1H-1,2,3triazol-4-yl)methyl]amine (TBTA, Click Chemistry Tools), 1 mM CuSO4, 40 μM tetramethylrhodamine (TAMRA)-azide (Click Chemistry Tools), 1 mM Tris(2-carboxyethyl)phosphine hydrochloride (TCEP, Thermo Fisher) and 5% tert-Butyl alcohol to each sample, and let to proceed for 1 h at RT while gently shaking. Reactions were stopped by adding 4× Laemmli sample buffer and boiling at 95° C. for 5 min.
(§4) In gel fluorescence and staining. Samples were loaded to 10 or 12% SDS-polyacrylamide gels and run until the dye front left the gel. In-gel fluorescence was detected with ChemiDoc XRS+ (Biorad) using Rhodamine filter and then the gels were stained with Coomassie blue or Silver using standard protocols.

PARP-1 [1] = molecular target: T2, PARP-1 (Homo sapiens, UniProt P09874); test: Competition labeling of PARP-1 by 2-ad-BAD; type: binding; conditions: for block of 2-ad-BAD labeling of PARP-1 by nucleotides: 150 μM nucleotide, 0.3 μM 2-ad-BAD; for dose-dependent block of 2-ad-BAD labeling of PARP-1: competitor dose series
T2 construct: Full length His6-PARP-1 and His6-SUMO-PARP-10 proteins we expressed and purified; His6 (N); made in house
Source text: as §1, §2, §3, §4

Adenylate kinase 1 (AK1) = molecular target: T3, Adenylate kinase 1 (AK1) (Homo sapiens, UniProt P00568); test: Labeling of recombinant AK1 by 2-ad-BAD and nucleotide competition; type: binding; conditions: 150 μM competitor, 0.3 μM 2-ad-BAD
T3 construct: purchased Novus Biologicals NBP1-50855
T3 sequence (P00568 1-194): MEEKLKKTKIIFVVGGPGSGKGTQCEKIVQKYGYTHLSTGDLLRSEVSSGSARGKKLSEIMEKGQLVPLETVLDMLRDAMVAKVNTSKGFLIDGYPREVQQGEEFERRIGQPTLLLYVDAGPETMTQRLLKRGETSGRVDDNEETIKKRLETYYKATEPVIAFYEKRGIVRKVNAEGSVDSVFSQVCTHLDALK
Procedure: (§5) FIG. 10. Validation of Adenylate kinase 1 (AK1) as a putative NAD^+/NADH binding protein. […] Recombinant AK1 (500 nM) in 100 mM NaCl, 50 mM HEPES [pH 7.4], 4 mM MgCl2, 0.2 mM TCEP was incubated with 150 μM of indicated competitor molecule for 10 min, followed by 10 min treatment with 0.3 μM 2-ad-BAD. Samples were then subjected to UV light for 5 min, conjugated to TAMRA using Click chemistry, separated by SDS-PAGE and in-gel fluorescence was recorded. […] (FIG. 10B) A differential scanning fluorimetry assay is supportive of NADH as novel AK1 ligand. Recombinant AK1 (0.1 mg/mL) in 100 mM NaCl, 50 mM HEPES, pH 7.4, 4 mM MgCl2, 7.5× SYPRO Orange was tested for thermal stability in the absence or presence of indicated nucleotides at 1 mM. Ordinate reports on the difference of melt peak temperature prompted by indicated treatments. Data are mean±SEM of 3 independent experiments.
as §2, §3, §4

AK1 [2] = molecular target: T4, AK1 (Homo sapiens, UniProt P00568); test: Differential scanning fluorimetry (DSF) of AK1; type: binding; conditions: nucleotide 1 mM, AK1 0.1 mg/mL
T4 construct: purchased Novus Biologicals NBP1-50855
T4 sequence (P00568 1-194): T3 sequence (P00568 1-194)
Procedure: as §5
Differential scanning fluorimetry was used to detect the AK1-ligand interaction. […] AK1 thermal stability upon treatment with ddH2O, ATP, ADP, NAD^+or NADH, 1 mM each, was measured on Biorad RT-PCR thermocycler using Cal Orange 560 filter. […] The melting temperature (Tm) for each sample was determined by calculating first derivative of the fluorescence (d(RFU)/dT) and shift in thermal stability (ΔTm) was calculated by subtracting vehicle—treated sample Tm from ligand-treated sample Tm.

AK1 [3] = conditions: cited from earlier work
squid AK = conditions: cited from earlier work
PARP-1 [4] = molecular target: T2, PARP-1; test: In vitro photocrosslinking and click chemistry labeling of PARP-1 (in-gel fluorescence); type: binding; conditions: 0.1 μM probe, UV 350 nm 5 min, presence or absence of damaged DNA
Procedure: as §2
Click Chemistry. 25 μL of each sample was mixed with 5 μL of fatty acid free BSA and SDS to give a final Click reaction concentration of 1 mg/mL and 1%, respectively. […]
In gel fluorescence and staining. […] In-gel fluorescence was detected with ChemiDoc XRS+ (Biorad) using Rhodamine filter and then the gels were stained with Coomassie blue or Silver using standard protocols.

T2 sequence (P09874 whole entry): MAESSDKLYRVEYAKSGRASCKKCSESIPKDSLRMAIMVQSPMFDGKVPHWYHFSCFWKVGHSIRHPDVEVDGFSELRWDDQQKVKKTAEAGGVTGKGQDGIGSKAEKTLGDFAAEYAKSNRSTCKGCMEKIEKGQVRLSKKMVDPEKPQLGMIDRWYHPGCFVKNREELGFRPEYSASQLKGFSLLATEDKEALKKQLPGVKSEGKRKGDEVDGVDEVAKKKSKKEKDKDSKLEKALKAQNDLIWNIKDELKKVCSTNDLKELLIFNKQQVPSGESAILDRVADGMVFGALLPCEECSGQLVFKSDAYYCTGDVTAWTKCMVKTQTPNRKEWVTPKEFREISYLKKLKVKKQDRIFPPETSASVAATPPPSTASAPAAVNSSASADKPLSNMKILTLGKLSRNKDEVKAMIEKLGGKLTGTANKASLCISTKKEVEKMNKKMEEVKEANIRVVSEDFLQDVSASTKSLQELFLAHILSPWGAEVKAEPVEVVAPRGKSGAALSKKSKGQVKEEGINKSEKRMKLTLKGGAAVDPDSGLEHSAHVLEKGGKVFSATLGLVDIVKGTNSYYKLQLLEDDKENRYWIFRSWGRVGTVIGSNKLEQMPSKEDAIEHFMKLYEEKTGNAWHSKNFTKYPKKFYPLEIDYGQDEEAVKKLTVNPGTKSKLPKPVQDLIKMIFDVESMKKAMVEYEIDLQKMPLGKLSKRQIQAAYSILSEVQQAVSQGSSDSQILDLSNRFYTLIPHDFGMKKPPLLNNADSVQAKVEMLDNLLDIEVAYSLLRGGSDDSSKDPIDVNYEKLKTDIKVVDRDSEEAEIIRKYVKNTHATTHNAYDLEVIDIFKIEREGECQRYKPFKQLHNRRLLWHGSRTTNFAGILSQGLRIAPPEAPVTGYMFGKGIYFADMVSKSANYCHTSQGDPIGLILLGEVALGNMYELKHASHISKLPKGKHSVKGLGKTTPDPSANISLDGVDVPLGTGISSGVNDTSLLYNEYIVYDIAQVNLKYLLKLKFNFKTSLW

| Compound | block of 2-ad-BAD labeling of PARP-10 by nucleotides (PARP-10) | block of 2-ad-BAD labeling of PARP-1 by nucleotides (PARP-1 [1]) | competition of 2-ad-BAD labeling of recombinant AK1 (Adenylate kinase 1 (AK1)) | other results |
| --- | --- | --- | --- | --- |
| CC#Cc1ccc2c(=O)[nH]c(CSc3ccc(C(=O)O)cc3)nc2c1C [ITK6] | – | – | – | dose-dependent block of 2-ad-BAD labeling of PARP-10 (PARP-10): blocked the labeling of PARP-10; dose-dependent block of 2-ad-BAD labeling of PARP-1 (PARP-1 [1]): did not block the labeling of PARP-1 |
| NC(=O)c1ccc[n+]([C@@H]2O[C@H](COP(=O)([O-])OP(=O)(O)OC[C@H]3O[C@@H](n4cnc5c(N)ncnc54)[C@H](O)[C@@H]3O)[C@@H](O)[C@H]2O)c1 [NAD^+, Nicotinamide adenine dinucleotide] | reduced | reduced | to a lesser extent | shift in AK1 thermal stabilization (ΔTm) compared to vehicle control (AK1 [2]): caused a shift in AK1 thermal stabilization; inhibition of AK1 activity (AK1 [3]): competitively inhibited |
| NC(=O)c1cc(F)cc2c1C(=O)N(C1CCN(C3CCC(F)(F)CC3)CC1)C2 [NMS-P118, 2-[1-(4,4-Difluorocyclohexyl)Piperidin-4-Yl]-6-Fluoro-3-Oxo-2,3-Dihydro-1H-Isoindole-4-Carboxamide] | – | – | – | dose-dependent block of 2-ad-BAD labeling of PARP-10 (PARP-10): did not block the labeling of PARP-10; dose-dependent block of 2-ad-BAD labeling of PARP-1 (PARP-1 [1]): blocked the labeling of PARP-1 |
| C#CCCC1(CCOC(=O)N2CCN(C(=O)c3cc(Cc4n[nH]c(=O)c5ccccc45)ccc3F)CC2)N=N1 [ad-olaparib, 2-(3-(but-3-yn-1-yl)-3H-diazirin-3-yl)ethyl 4-(2-fluoro-5-((4-oxo-3,4-dihydrophthalazin-1-yl)methyl)benzoyl) piperazine-1-carboxylate] | – | – | – | UV-dependent labeling of PARP-1, dependence on damaged DNA (PARP-1 [4]): labels PARP-1 independent of PARP-1 binding to damaged DNA |

The next lines start with results.

| block of 2-ad-BAD labeling of PARP-10 by nucleotides (PARP-10) | block of 2-ad-BAD labeling of PARP-1 by nucleotides (PARP-1 [1]) | competition of 2-ad-BAD labeling of recombinant AK1 (Adenylate kinase 1 (AK1)) | Compound | other results |
| --- | --- | --- | --- | --- |
| did not block | did not block | – | Nc1ncnc2c1ncn2[C@@H]1O[C@H](COP(=O)(O)OP(=O)(O)O)[C@@H](O)[C@H]1O [ADP] | – |
| did not block | did not block | to a lesser extent | Nc1ncnc2c1ncn2[C@@H]1O[C@H](COP(=O)(O)OP(=O)(O)OC[C@H]2OC(O)[C@H](O)[C@@H]2O)[C@@H](O)[C@H]1O (stereo partly shown) [ADPr, ADP-ribose] | – |
| – | – | effectively competed | Nc1ncnc2c1ncn2[C@@H]1O[C@H](COP(=O)(O)O)[C@@H](O)[C@H]1O [AMP] | – |
| did not block | did not block | effectively competed | Nc1ncnc2c1ncn2[C@@H]1O[C@H](COP(=O)(O)OP(=O)(O)OP(=O)(O)O)[C@@H](O)[C@H]1O [ATP, adenosine triphosphate] | – |
| reduced | reduced | effectively competed | NC(=O)C1=CN([C@@H]2O[C@H](COP(=O)(O)OP(=O)(O)OC[C@H]3O[C@@H](n4cnc5c(N)ncnc54)[C@H](O)[C@@H]3O)[C@@H](O)[C@H]2O)C=CC1 [NADH] | shift in AK1 thermal stabilization (ΔTm) compared to vehicle control (AK1 [2]): caused a shift in AK1 thermal stabilization; also recorded: showed a thermal shift similar to ATP and ADP; inhibition of AK1 activity (AK1 [3]): competitively inhibited; mode of inhibition of squid AK (squid AK): non-competitive inhibitor |
